Source: patent publication US8603737B2, “Methods for identifying HCV protease inhibitors” (priority 2008, dated 2013)

Tests used:
[1] = test system: HCV NS3/4A genotypes 1a, 1b, 2a, and 3a; assay: Mass spectrometric analysis of covalent modification, NS3/4A genotypes; format: binding; details: 3 hours reaction, each genotype 1a, 10-fold excess of compound
Protocol: Mass spectrometric analysis of HCV wild type or HCV variants (C159S, A156S, R155K, D168A, A156T, and D168V) in the presence of test compound was performed. 100 pmols of HCV wild type (Bioenza Calif.) was incubated with test compound for 1 hr and 3 hrs at 10-fold excess of test compound to protein. 1 μL aliquots of the samples (total volume of 4.24 μL) were diluted with 10 μL of 0.1% TFA prior to micro C4 ZipTipping directly onto the MALDI target using Sinapinic acid as the desorption matrix (10 mg/mL in 0.1% TFA:Acetonitrile 50:50). Analyses were performed on a Shimadzu Biotech Axima TOF (Shimadzu Instruments) matrix-assisted-laser desorption/ionization Time-of-Flight (MALDI-TOF) mass spectrometer. The same procedure was carried out on 100 pmols of HCV C159S mutant of HCV protease for 3 hrs at 10-fold excess of test compound to protein.
In addition, mass spectrometric analysis of HCV NS3/4A genotypes 1a, 1b, 2a, and 3a in the presence of test compound was performed using the above protocol.

[2] = biological target: T1, D168V mutant of the HCV NS3/4A 1b protease enzyme (Hepatitis C virus genotype 1b, UniProt P26663, D1194V); assay: HCV protease FRET assay, D168V mutant; format: biochemical; details: read-out: Inhibition, HCV D168V (IC50)
T1 construct: 10× stocks of NS3/4A protease enzyme from Bioenza; purchased Bioenza (Mountain View, Calif.)
Protocol: HCV Protease FRET Assay for Mutated NS3/4A 1b Enzymes
The protocol is a modified FRET-based assay (v—02) from In Vitro Resistance Studies of HCV Serine Protease Inhibitors, 2004, JBC, vol. 279, No. 17, pp 17508-17514. Inherent potency of compounds was assessed against A156S, A156T, D168A, and D168V mutants of the HCV NS3/4A 1b protease enzyme as follows:
Assay buffer: 2% CHAPS, 50 mM Tris pH 7.5, 50% glycerol, 2 μM M-2235 (Bachem) substrate. In a 50 μl reaction, add 49 μl assay buffer, 1 μl (1 U) HCV serine protease (Bioenza). Incubate 20 minutes at room temperature. The plate was read at either 350/460 nm (excitation/emission) on a fluorescent micro-plate reader or monitored at one-minute intervals to achieve the kinetic curve.
10× stocks of NS3/4A protease enzyme from Bioenza (Mountain View, Calif.) and 1.13×5-FAM/QXL™520 FRET peptide substrate from Anaspec (San Jose, Calif.) were prepared in 50 mM HEPES, pH 7.8, 100 mM NaCl, 5 mM DTT and 20% glycerol. 5 μL of each enzyme were pre-incubated in a Corning (#3573) 384-well, black, non-treated microtiter plate (Corning, N.Y.) for 30 min at 25° C. with a 0.5 μL volume of 50% DMSO and serially diluted compounds prepared in 50% DMSO. Protease reactions were started with the addition of 45 μL of the FRET substrate and monitored for 120 minutes at λex487/λem514 through Quad^4 monochromoters in a Synergy^4 plate reader from BioTek (Winooski, Vt.). […] Initial velocity (0 minutes to 30+ minutes) from each reaction was determined from the slope of a plot of relative fluorescence units vs time (minutes) and then plotted against inhibitor concentration to estimate IC50 from log[Inhibitor] vs Response, Variable Slope model in GraphPad Prism from GraphPad Software (San Diego, Calif.). […]
The following protocol was used to generate “apparent” IC50 (IC50—APP)) values as depicted in Table 3, below. […] Protease reactions were immediately started after enzyme addition with the addition of 45 μL of the FRET substrate and monitored for 60-90 minutes at λex485/λem520 in a Synergy^4 plate reader from BioTek (Winooski, Vt.). […]

[3] = biological target: T2, NS3 protease self-cleavage in Huh-7-Luc-Neo-ET cells (Hepatitis C virus genotype 1b, UniProt Q9WMX2, E1202G/T1280I); format: cell-based, HCV; details: wild type replicon cells
T2 construct: host or cells: Huh-7-Luc-Neo-ET replicon cells (human hepatoma Huh7)
Protocol: Inhibition of Protease Self Cleavage
The remaining wells were rinsed 2× with PBS then fed with Replicon Media and returned to the incubator.
(§1) Cell lysates were separated by SDS-Page (4-20%) and transferred to Immobilon-P PVDF membrane (Millipore Corporation, MA) and blotted with polyclonal anti NS3 antibody (Bioenza, Calif.). Blots were scanned on an Odyssey infrared scanner from Licor and the FL band and cleavage products were quantified separately using the Licor software provided with the scanner. The cleavage product was calculated as a percentage of the total NS3 in each sample and then normalized to the DMSO control so that the DMSO control reflects 100% activity.

[4] = biological target: T3, NS3 protease R155K self-cleavage in modified replicon system (Hepatitis C virus genotype 1b, UniProt Q9WMX2, E1202G/R1181K/T1280I); assay: Inhibition of protease self cleavage in R155K modified replicon system (washout); format: cell-based, HCV; details: R155K modified replicon system (FIG. 6)
T3 construct: expressed in transfected cells; host or cells: replicon cells carrying the R155K-mutated pFK-I389-luc-ubi-neo-NS3-3'ET replicon
Protocol: Constructs containing clinically relevant mutations were generated by performing site-directed mutagenesis on the pFK-1389-luc-ubi-neo-NS3-3′ET plasmid (ReBLikon Gmbh (Heidelberg, Germany)). using the QuickChange II Site-Directed Mutagenesis Kit (Stratagene, La Jolla, Calif.) according to manufacturer's directions and with the primers described in Table 2.
Huh-7-Luc-Neo-ET cells were plated in Replicon Assay Medium (RPMI supplemented with 5% FBS, 1× non-essential amino acids and pen/strep) at a density of 1×10^5 cells/well in 12 well plates. Eight hours later the media was removed and replaced with 1 mL media containing test compound (5 wells per compound) and 0.02% DMSO and the cells were returned to the incubator overnight. […]
as §1, with “activity. […]” for “activity.”

[5] = test system: HCV RNA replicon in cell line ET (luc-ubi-neo/ET), human Huh7 hepatoma; assay: Luciferase reporter replicon assay (Example 5, Method C); format: cell-based; details: Hepatitis C virus, Huh-7, 72 hr, EC90, read-out: Inhibition, Replicon, EC90 value
Protocol: Method C: Luciferase Reporter Assay Protocol
The compounds were assayed to evaluate the antiviral activity and cytotoxicity of compounds using replicon-derived luciferase activity. This assay used the cell line ET (luc-ubi-neo/ET), which is a human Huh7 hepatoma cell line that contains an HCV RNA replicon with a stable luciferase (Luc) reporter and three cell culture-adaptive mutations. The ET cell line was grown in a 5% CO2 incubator at 37° C. in Dulbecco's modified essential media (DMEM), supplemented with 2 mM L-glutamine (“1%”), nonessential amino acids, 100 U of penicillin/mL, 100 μg of streptomycin/mL (“1%”), 10% fetal bovine serum and 400 μg/mL G418 (Geneticin; Invitrogen).
All cell culture reagents were obtained from Invitrogen (Carlsbad). Cells were trypsinized (1% trypsin:EDTA) and plated out at 5×10^3 cells/well in white 96-well assay plates (Costar) dedicated to cell number (cytotoxicity) or antiviral activity assessments. Test compounds were added at six 3-fold serial dilutions each and the assay was run in DMEM, 5% FBS, 1% pen-strep, 1% glutamine, 1% non essential amino acid. Human interferon alpha-2b (PBL Biolabs, New Brunswick, N.J.) was included in each run as a positive control compound. Cells were processed 72 hr post test compound addition when the cells were still subconfluent. Antiviral activity was measured by analyzing replicon-derived luciferase activity using the Steady-Glo Luciferase Assay System (Promega, Madison, Wis.) according to manufacturer's instruction. The number of cells in each well was determined by Cell Titer Blue Assay (Promega). Compound profile was derived by calculating applicable EC50 (effective concentration inhibiting virus replication by 50%), EC90 (effective concentration inhibiting virus replication by 90%), IC50 (concentration decreasing cell viability by 50%) and SI50 (selective index: […]) values.

C=C[C@@H]1C[C@]1(NC(=O)[C@@H]1C[C@@H](Oc2nccc3cc(OC)ccc23)CN1C(=O)[C@H](CCC(=O)C=C(C)C)NC(=O)OC(C)(C)C)C(=O)NS(=O)(=O)C1CC1 [Compound 5]
covalent modification of HCV NS3/4A (mass spectrometry) [1]: measurable covalent modification

C=CC(=O)N[C@H](C)C(=O)N1C[C@H](Oc2cc(-c3ccccc3)nc3cc(OC)ccc23)C[C@H]1C(=O)N[C@]1(C(=O)NS(=O)(=O)C2CC2)C[C@H]1C=C [Compound 7]
IC50 [2]: 100 to 1000 nM | inhibition of NS3 self-cleavage after compound removal ([3]; up to 24 hours after compound removal (FIG. 5)): virtually complete inhibition | duration of inhibition of mutant protease activity after compound removal [4]: at least 24 hours

C=C[C@@H]1C[C@]1(NC(=O)[C@@H]1C[C@@H]2CN1C(=O)[C@H](CCC(=O)C=C(C)C)NC(=O)OCCC/C=C/c1ccc3ccnc(c3c1)O2)C(=O)NS(=O)(=O)C1CC1 [Compound 6]
EC90 [5]: < 10 nM

CCC[C@H](NC(=O)[C@@H]1[C@H]2CCC[C@H]2CN1C(=O)[C@@H](NC(=O)[C@@H](NC(=O)c1cnccn1)C1CCCCC1)C(C)(C)C)C(=O)C(=O)NC1CC1 [Compound 1, reference compound]
return of NS3 self-cleavage activity after drug removal ([3]; 16 hours incubation, in as little as 4 hours after drug removal): virtually complete return of activity
